23 compounds from article PMC9732439, “Biochemical and in silico inhibition of bovine and human carbonic anhydrase-II by 1H-1,2,3-triazole analogs” (Frontiers in Chemistry, 2022) can be followed below.

Usually IC50 stands for the concentration needed to halve the response being measured. In general, Ki refers to a measure of affinity in units of concentration, obtained from inhibition or displacement.

The target of assay [1] is T1, bCA-II (Bos taurus, UniProt P00921). In words: In vitro carbonic anhydrase inhibition assay (p-NPA, spectrophotometric), bCA-II. Format: biochemical, bovine. The following applies: for IC50 / bCA-II IC50 ± S.E.M.: bovine CA-II, substrate p-NPA, 15 min at 25°C, triplicate; for IC50: read-out: bCA-II IC50 ± S.E.M. On the procedure: Total assay volume comprises 140 µl of HEPES-Tris buffer, 20 µl of bCA-II solution (0.1 mg/ml HEPES-Tris buffer), 20 µl of the test compound (prepared in DMSO), and 20 µl p-NPA (0.7 mM, methanol). First, the test compound and enzyme were incubated for 15 min at 25°C; after incubation, in quick sequence, substrate was added to each experiment in 96-well plates, which were placed in the ^xMARK microplate spectrophotometer (Bio-Rad, United States), and the absorbance was set to 400 nm with 1 min interval time. The activity of the controlled compound was taken as 100%.
T1 sequence (P00921 whole entry): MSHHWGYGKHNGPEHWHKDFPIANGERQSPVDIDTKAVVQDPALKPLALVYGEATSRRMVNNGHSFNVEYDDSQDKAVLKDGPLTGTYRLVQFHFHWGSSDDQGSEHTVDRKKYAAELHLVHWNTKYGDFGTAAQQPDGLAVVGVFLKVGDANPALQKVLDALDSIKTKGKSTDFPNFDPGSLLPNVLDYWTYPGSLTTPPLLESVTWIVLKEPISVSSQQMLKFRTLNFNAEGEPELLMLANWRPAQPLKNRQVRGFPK

For assay [2], the target named is T2, hCA-II (Homo sapiens, UniProt P00918). In words: In vitro carbonic anhydrase inhibition assay (p-NPA, spectrophotometric), hCA-II. Format: biochemical. The following applies: for IC50 / hCA-II IC50 ± S.E.M.: human CA-II, substrate p-NPA, triplicate; for IC50: read-out: hCA-II IC50 ± S.E.M.; for Selectivity for hCA-II: hCA-II versus bCA-II.
The target of assay [3] is T1, bCA-II. In words: Kinetics study against bCA-II. Format: biochemical, bovine. The conditions noted are these: for Kmapp: Michaelis–Menten constant in the presence of inhibitor; for Vmaxapp: maximum velocity in the presence of inhibitor; for Ki: read-out: Ki ± SEM. The method, then: (§1) Soon after the incubation, various concentrations of substrate were added to the reaction medium (01–0.8 mM). The enzyme activity was measured under steady-state conditions by observing changes in absorbance for 30 min at 400 nm on the microtiter plate reader (Bio-Rad X-Mark^Tm molecular spectrometer, United States). The results were analyzed and processed by Grafit 7 software (Erithacus Software Limited, United Kingdom). Different kinetic parameters of enzymes (e.g., Vmax, Km, Vmaxapp, and Kmapp) and values of correlation coefficients, intercepts, slopes, and their standard error mean were calculated by the linear regression graph by Grafit 7. Linear regression analysis was used to calculate the “best fit” line or curve through a dataset by minimizing the deviation of the data from the curve.

Assay [4] has as its target T2, hCA-II. In words: Kinetics study against hCA-II. It is filed as biochemical. The conditions noted are these: for Kmapp: Michaelis–Menten constant in the presence of inhibitor; for Vmaxapp: maximum velocity in the presence of inhibitor; for Ki: read-out: Ki ± SEM. The method, then: as §1

Consider `COc1cc(Br)ccc1O[C@H](C)Cn1cc(-c2ccccc2)nn1` [Compound 7a], for which the IC50 at bCA-II [1] turned out to be 21.4 ± 0.1 µM; at hCA-II [2] it was 35.3 ± 0.6 µM.
In the case of `COc1cc(Br)ccc1O[C@H](C)Cn1cc(-c2ccc(C(F)(F)F)cc2)nn1` [Compound 7b], the half-inhibitory concentration (IC50) came out at 20.6 ± 0.3 µM on bCA-II [1] and 45.1 ± 0.5 µM on hCA-II [2].
For the compound `COc1cc(Br)ccc1O[C@H](C)Cn1cc(-c2ccc(F)cc2)nn1` [Compound 7c], the half-maximal inhibitory concentration (IC50) on bCA-II [1] turned out to be 20.4 ± 0.3 µM; at hCA-II [2] it was 22.8 ± 0.2 µM.
`COC(=O)c1cn(C[C@@H](C)Oc2ccc(Br)cc2OC)nn1` [Compound 7d]: the IC50 on bCA-II [1] came to 12.3 ± 0.4 µM; on hCA-II [2], 25.1 ± 0.4 µM.
As to `COc1cc(-c2ccc(C)cc2)ccc1O[C@H](C)Cn1cc(-c2ccc(C(F)(F)F)cc2)nn1` [Compound 9a], the half-maximal inhibitory concentration (IC50) at bCA-II [1] was 25.7 ± 0.2 µM; at hCA-II [2], 21 ± 1 µM.
As for `COc1ccc(-c2ccc(O[C@H](C)Cn3cc(-c4ccc(C(F)(F)F)cc4)nn3)c(OC)c2)cc1` [Compound 9b], the IC50 at bCA-II [1] was 39.1 ± 0.3 µM; on hCA-II [2] it was 22.4 ± 0.4 µM.
In the case of `COc1cc(-c2ccccc2C(F)(F)F)ccc1O[C@H](C)Cn1cc(-c2ccc(C(F)(F)F)cc2)nn1` [Compound 9c], the “bCA-II IC50 ± S.E.M.” value at bCA-II [1] was “Inactive”. Further, on hCA-II [2], the “Selectivity for hCA-II” value is recorded as “selective inhibitors of the hCA-II” and the IC50 was found to be 12.5 ± 0.6 µM.
With `COc1cc(-c2ccc(F)cc2)ccc1O[C@H](C)Cn1cc(-c2ccc(C(F)(F)F)cc2)nn1` [Compound 9d], the half-maximal inhibitory concentration (IC50) on bCA-II [1] is 28.8 ± 0.4 µM. In addition, the “hCA-II IC50 ± S.E.M.” value on hCA-II [2] is on record as “Inactive”.
The matching figures for `COc1cc(-c2ccc([N+](=O)[O-])cc2)ccc1O[C@H](C)Cn1cc(-c2ccc(C(F)(F)F)cc2)nn1` [Compound 9e]: 17.8 ± 0.8 µM and “Inactive”.
As to `COc1cc(-c2ccccc2)ccc1O[C@H](C)Cn1cc(-c2ccc(F)cc2)nn1` [Compound 9f], at bCA-II [1], the IC50 is 88.4 ± 0.3 µM. Moreover, on hCA-II [2], the “hCA-II IC50 ± S.E.M.” value is listed as “Inactive”.
`COc1cc(-c2ccc(C)cc2)ccc1O[C@H](C)Cn1cc(-c2ccc(F)cc2)nn1` [Compound 9g]: the IC50 at bCA-II [1] is 16.4 ± 0.4 µM. Also, the “hCA-II IC50 ± S.E.M.” value on hCA-II [2] is “Inactive”.
The matching figures for `COc1ccc(-c2ccc(O[C@H](C)Cn3cc(-c4ccc(F)cc4)nn3)c(OC)c2)cc1` [Compound 9h]: 12.9 ± 1 µM and “Inactive”.
With `COc1cc(-c2ccc([N+](=O)[O-])cc2)ccc1O[C@H](C)Cn1cc(-c2ccc(F)cc2)nn1` [Compound 9i], the half-maximal inhibitory concentration (IC50) at bCA-II [1] turned out to be 11.1 ± 0.2 µM. The IC50 at hCA-II [2] is 10.9 ± 1 µM. Moreover, at bCA-II [3], the Type of inhibition result is “competitive inhibition”, the Kmapp is recorded as 5.6 mM, the Vmaxapp is on record as 23.2 (µmol/min)^−1 and the Ki amounted to 9.4 ± 0.3 µM. At hCA-II [4], the Type of inhibition entry is recorded as “competitive inhibition”, the Kmapp was 3.9 mM, the Vmaxapp is on record as 26.1 (µmol/min)^−1 and the inhibition constant (Ki) is 8.1 ± 0.04 µM.
As to `COc1cc(-c2ccc(Cl)cc2)ccc1O[C@H](C)Cn1cc(-c2ccc(F)cc2)nn1` [Compound 9j], the “bCA-II IC50 ± S.E.M.” value at bCA-II [1] was “Inactive”. The IC50 on hCA-II [2] is 18.5 ± 0.4 µM.
As for `COc1cc(-c2ccc(C#N)cc2)ccc1O[C@H](C)Cn1cc(-c2ccc(F)cc2)nn1` [Compound 9k], the “bCA-II IC50 ± S.E.M.” value on bCA-II [1] is given as “Inactive”. Further, on hCA-II [2], the “Selectivity for hCA-II” value was “selective inhibitors of the hCA-II” and the concentration for half-maximal inhibition (IC50) turned out to be 21.3 ± 0.8 µM.
For `COc1cc(-c2ccc(F)cc2)ccc1O[C@H](C)Cn1cc(-c2ccc(F)cc2)nn1` [Compound 9l], the “bCA-II IC50 ± S.E.M.” value on bCA-II [1] is “Inactive”. Further, at hCA-II [2], the “hCA-II IC50 ± S.E.M.” value is recorded as “Inactive”.
`COc1cc(-c2cc(C(F)(F)F)cc(C(F)(F)F)c2)ccc1O[C@H](C)Cn1cc(-c2ccc(F)cc2)nn1` [Compound 9m]: the IC50 at bCA-II [1] came out at 41 ± 0.4 µM; on hCA-II [2], 27.4 ± 0.9 µM.
The matching figures for `COc1cc(-c2ccc(C=O)cc2)ccc1O[C@H](C)Cn1cc(-c2ccc(F)cc2)nn1` [Compound 9n]: 22.4 ± 0.4 µM and 23 ± 0.3 µM.
For the compound `COc1cc(-c2c(F)cccc2F)ccc1O[C@H](C)Cn1cc(-c2ccc(F)cc2)nn1` [Compound 9o], the IC50 at bCA-II [1] was 14.1 ± 0.2 µM. Further, the IC50 on hCA-II [2] stood at 13.6 ± 1 µM. Moreover, at bCA-II [3], the Type of inhibition entry was “competitive inhibition”, the Kmapp is 4.9 mM, the Vmaxapp was 24.6 (µmol/min)^−1 and the Ki amounted to 11.3 ± 0.17 µM. Moreover, at hCA-II [4], the Type of inhibition result is “competitive inhibition”, the Kmapp is reported as 4.2 mM, the Vmaxapp is reported as 25.3 (µmol/min)^−1 and the Ki is 6.5 ± 0.19 µM.
In the case of `COc1cc(-c2ccc(F)c(F)c2F)ccc1O[C@H](C)Cn1cc(-c2ccc(F)cc2)nn1` [Compound 9p], at bCA-II [1], the “bCA-II IC50 ± S.E.M.” value was “Inactive”. For the same compound, on hCA-II [2], the “Selectivity for hCA-II” value was “selective inhibitors of the hCA-II” and the half-maximal inhibitory concentration (IC50) came out at 19.3 ± 0.2 µM.
For `COc1cc(-c2ccc3ccccc3c2)ccc1O[C@H](C)Cn1cc(-c2ccc(F)cc2)nn1` [Compound 9q], the “bCA-II IC50 ± S.E.M.” value on bCA-II [1] was “Inactive”. The “hCA-II IC50 ± S.E.M.” value at hCA-II [2] is given as “Inactive”.
Regarding `COc1cc(-c2ccc(C(C)=O)cc2)ccc1O[C@H](C)Cn1cc(-c2ccc(F)cc2)nn1` [Compound 9r], the “Selectivity for bCA-II” value on bCA-II [1] (bCA-II versus hCA-II) is reported as “selective inhibitors of bCA-II”. Moreover, on bCA-II [1], the IC50 is 29 ± 1 µM. Moreover, on hCA-II [2], the “hCA-II IC50 ± S.E.M.” value was “Inactive”.
Consider `COc1cc(-c2cc3ccccc3s2)ccc1O[C@H](C)Cn1cc(-c2ccc(F)cc2)nn1` [Compound 9s], for which, on bCA-II [1], the “bCA-II IC50 ± S.E.M.” value is listed as “Inactive”. At hCA-II [2], the “hCA-II IC50 ± S.E.M.” value is “Inactive”.
